From patent EP0107306A1, “Imidazoline derivatives” (BEECHAM GROUP PLC, priority 1982, dated 1984)
Counter-ions that a name gives are not always drawn. Marks after values point to notes of the source that are not given here.

Test system: E coli B44 (09:K90:K99)
Assay: Protection of neonatal mice from lethal enteropathogenic E coli infection
Assay type: in vivo
Settings: 4 day old mice orally infected; for % Protection by drug: mortality in drug group compared with placebo group
Protocol: 4 day old mice were orally dosed with 50pl of phosphate buffered saline containing 1 x 10^5 organisms/ml of E coli B44 (09:K90:K99) an enteropathogenic strain originally isolated from a scouring calf. The mice were then dosed b.i.d. with either placebo or drug for four days commencing 16 hours after infection. The animals were left with their mothers throughout the experiment and a daily record of deaths was made. The experiment was terminated when no mortality was seen over a 24 hour period. (Usually 7-10 days after infection). The mortality in the drug group was then compared with the mortality in the placebo group using the following formula:- [formula]
where Mp = mortality in group receiving placebo Md = mortality in group receiving drug
Statistical analysis was performed using 2 x 2 contingency tables (single tailed 'p').

[1] = drug 10mg/kg b.i.d. for four days commencing 16 hours after infection
[2] = drug 10mg/kg b.i.d. for four days

| SMILES | % Mortality [1] | No of mice dead after 10 days [1] | % Protection by drug [2] | % Mortality (drug 50mg/kg b.i.d. for four days commencing 16 hours after infection) | No of mice dead after 10 days (drug 50mg/kg b.i.d. for four days commencing 16 hours after infection, 68 mice infected) | % Protection by drug (drug 50mg/kg b.i.d. for four days) |
| --- | --- | --- | --- | --- | --- | --- |
| C[N+](C)(C)Cc1cc(Cl)c(N=C2NCCN2)c(Cl)c1 [Example 6, 2-(2,6-Dichloro-4-trimethylammoniomethylphenylimino)-imidazolidine bromide Hydrobromide.] | 71% | 52 | 15% |  |  |  |
| CC[N+](CC)(CC)Cc1cc(Cl)c(N=C2NCCN2)c(Cl)c1 [Example I, 2,(2,6-Dichloro-4-triethylammoniomethylphenylimino)-imidazolidine bromide] | 32% | 22 | 40* % | 29% | 20 | 46* % |
